# Like-named read-outs stand apart in the source and are kept apart here.
# Assays:
# [1] = system: IFNα-induced CXCL10 production in human whole blood; assay: IFNα-induced CXCL10 production in human whole blood; assay type: cell-based
# Protocol: Human whole blood [drawn with Ethylenediaminetetraacetic acid (EDTA) as anti-coagulant] was obtained from Zen-Bio Inc. (Durham, NC). […] The plasma was collected for detection of C-X-C motif chemokine 10 (CXCL10, IP10) secretion. CXCL10 was measured by Human CXCL10/IP-10 AlphaLISA Kit (PerkinElmer, #AL259 C/F) according to the manufacturer’s instructions.
# [2] = system: IL12-induced IFNγ production in human PBMCs; assay: IL12-induced IFNγ production in human PBMCs; assay type: cell-based; settings: PBMC, IL12 overnight, read-out: TYK2-associated IL12-induced-IFNγ Production in Human PBMCs: IC50
# Protocol: Human PBMC samples were obtained from iQ Biosciences, CA. 1.0 × 10^6/mL PBMCs were seeded in complete RPMI at a sterilized U-shaped 96-well plate with a volume of 200 μL/well. PBMCs were treated by serially-diluted test compounds, and incubated with 40 ng/mL recombinant human IL12 (Biolegend, #573002) for overnight in a humidified, 5% CO2 cell culture incubator at 37°C. The supernatant was then collected for detection of IFNγ secretion. IFNγ level was measured by Human IFNγ AlphaLISA Kit (PerkinElmer, AL217C/F) according to the manufacturer’s instructions.
# [3] = system: JAK1-dependent IL6-induced phosphorylation of STAT3 (Tyr705) in TF1 cells; assay: JAK cellular selectivity assay, IL6-pSTAT3 (JAK1); assay type: cell-based; settings: Homo sapiens, TF-1, read-out: JAK Cellular Selectivity (IC50) IL6-pSTAT3 (JAK1)
# Protocol: (§1) The cells were then ready for the assay after incubating for 2 hours in a humidified, 5% CO2 cell culture incubator at 37°C. […] The curve fit was generated, and statistical analysis was performed using GraphPad Prism. IC50 values were derived by non-linear regression analysis and defined as the compound concentration at which the response level was reduced to half of its maximum relative to a DMSO control.
# [4] = system: JAK2-dependent EPO-induced phosphorylation of STAT5 (Tyr694/699) in TF1 cells; assay: JAK cellular selectivity assay, EPO-pSTAT5 (JAK2); assay type: cell-based, human
# Protocol: as §1
# [5] = system: JAK1/3-dependent IL2-induced phosphorylation of STAT5 (Tyr694/699) in Kit225 cells; assay: JAK cellular selectivity assay, IL2-pSTAT5 (JAK1/3); assay type: cell-based; settings: Homo sapiens, KIT225, read-out: JAK Cellular Selectivity (IC50) IL2-pSTAT5 (JAK1/3)
# Protocol: as §1
# [6] = system: IL23-induced-IL17 production in mouse splenocytes; assay: IL23-induced IL17 production in mouse splenocytes; assay type: cell-based; settings: Splenocyte; IL23-stimulated mouse splenocytes; read-out: mIL17 IC50
# Protocol: (§2) generated by non-linear regression analysis to determine the IC50 values of compounds using […]
# (Monkey, Canine, Rat and Mouse)
# (A) Suppression of IL23-induced-IL17 production in mouse splenocytes by TYK2 JH2 ligands, […]
# (§3) JH2 ligands, SHR2915, 0936, 1039 and 1213, in mouse splenocytes (B), Canine PBMCs (C), Rat PBMCs (D) and Macaque PBMCs (E). Inhibition data were calculated by comparison to vehicle […]
# (§4) response curves were then generated to determine the IC50 values as derived by non-linear regression analysis using GraphPad Prism. […]
# [7] = system: IL12-induced-IFNg production in mouse splenocytes; assay: IL12-induced IFNγ production in mouse splenocytes; assay type: cell-based; settings: Splenocyte
# [8] = system: IL12-induced-IFNg production in Canine PBMCs; assay: IL12-induced IFNγ production in canine PBMCs; assay type: cell-based; settings: Canis lupus familiaris, PBMC
# Protocol: as §2
# (§5) (Monkey, Canine, Rat and Mouse) […]
# as §3, §4
# [9] = system: IL12-induced-IFNg production in Rat PBMCs; assay: IL12-induced IFNγ production in rat PBMCs; assay type: cell-based; settings: PBMC
# Protocol: as §2, §5, §3, §4
# [10] = system: IL12-induced-IFNg production in Macaque PBMCs; assay: IL12-induced IFNγ production in macaque PBMCs; assay type: cell-based, Macaque (Cyno Monkey); settings: Primates, PBMC, read-out: IL12-induced-IFNg, IC50, Monkey
# Protocol: as §2, §5, §3, §4
# [11] = system: IFNα-induced TYK2/phosphoSTAT1 (Tyr701) in Kit225 T cells; assay: Kit225 T cell assay for IFNα-induced TYK2/phosphoSTAT1 activity; assay type: cell-based, human; settings: Kit225 cells, 80 ng/mL IFNα, AlphaLISA; read-out: IC50 IFNα-induced-STAT1 Phosphorylation
# Protocol: (§6) The cells were treated with serially diluted compounds for 1 hour and stimulated with 80 ng/mL human recombinant IFNα (R&D Systems) for 15 minutes. The treated cells were then lysed and cellular phosphorylated-STAT1 (Tyr701) levels were measured by AlphaLISA (PerkinElmer, Cat#ALSU-PST1) according to the manufacturer’s instructions.
# [12] = system: IL23-induced TYK2/phosphoSTAT3 (Tyr705) in Kit225 T cells; assay: Kit225 T cell assay for IL23-induced TYK2/phosphoSTAT3 activity; assay type: cell-based, human; settings: Kit225 cells, 100 ng/mL IL23, AlphaLISA; read-out: IC50 IL23-induced-STAT3 Phosphorylation
# Protocol: as §6, with “100” for “80”, “IL23” for “IFNα”, “20” for “15”, “phosphorylated-STAT3 (Tyr705)” for “phosphorylated-STAT1 (Tyr701)”, “Cat# ALSU-PST3)” for “Cat#ALSU-PST1)”
# [13] = system: moderate to severe psoriasis patients; set-up: method as in PMID 30205746; settings: phase II, 267 patients; cited from earlier work
Molecule,"IC50 ([1]; Homo sapiens, 16 h, read-out: TYK2-associated IFNα-induced-CXCL10 Production in Human Whole Blood: IC50) [µM]",IC50 [2] [µM],IC50 [3] [µM],"IC50 ([4]; Homo sapiens, TF-1, read-out: JAK Cellular Selectivity (IC50) EPO-pSTAT5 (JAK2)) [µM]",IC50 [5] [µM],IC50 [6] [µM],IC50 [7] [µM],IC50 [8] [µM],IC50 [9] [µM],IC50 [10] [µM],IC50 [11] [µM],IC50 [12] [µM],"IC50 ([1]; Donor 1, read-out: IFNa-induced-CXCL10 Production in Human Whole Blood IC50, Donor 1) [µM]","IC50 ([1]; Donor 2, read-out: IFNa-induced-CXCL10 Production in Human Whole Blood IC50, Donor 2) [µM]","IC50 ([1]; Donor 3, read-out: IFNa-induced-CXCL10 Production in Human Whole Blood IC50, Donor 3) [µM]","IC50 ([1]; average of Donor 1-3, read-out: IFNa-induced-CXCL10 Production in Human Whole Blood IC50, Average) [µM]","IC50 ([4]; TF1 cells, read-out: JAK Cellular Selectivity (IC50) EPO-pSTAT5 (JAK2)) [µM]",Daily dose at which clinically effective [13] [mg]
CNC(=O)c1nnc(Nc2ccc(N3CCC3)cn2)cc1Nc1cccc(-c2ncn(C)n2)c1OC [SHR2915],0.16,0.045,0.2 ± 0.011,> 10,2.3 ± 0.97,0.011,0.06,0.033,0.003,0.014,–,–,–,–,–,–,–,–
Deucravacitinib,–,–,–,–,–,–,–,–,–,–,0.0085,0.005,0.11,0.094,0.083,0.096,> 10,≥ 3

# Reference: paper PMC9186491, “Novel Small Molecule Tyrosine Kinase 2 Pseudokinase Ligands Block Cytokine-Induced TYK2-Mediated Signaling Pathways” (Frontiers in Immunology, 2022)
